Assay results as given in the NIST ThermoML archive (doi:10.1016/j.jct.2013.04.001).
± gives the expanded uncertainty stated by the source.

Experiment: mn = molality of the nth substance listed, in mol/kg
Settings: 101 kPa, Liquid; for mass density: Pycnometric method; for viscosity: Capillary tube (Ostwald / Ubbelohde) method

N=C(N)NCCC[C@H](N)C(=O)O [L-arginine] + O
Settings	mass density [kg/m3]	viscosity [mPa·s]
293.15 K, m1 = 0.025	999.51 ± 0.31	–
293.15 K, m1 = 0.05	1000.78 ± 0.31	–
293.15 K, m1 = 0.075	1002.04 ± 0.31	–
293.15 K, m1 = 0.1	1003.3 ± 0.31	–
293.15 K, m1 = 0.125	1004.55 ± 0.31	–
293.15 K, m1 = 0.15	1005.79 ± 0.31	–
293.15 K, m1 = 0.175	1007.02 ± 0.32	–
293.15 K, m1 = 0.2	1008.25 ± 0.32	–
298.15 K, m1 = 0.025	998.35 ± 0.33	0.9009 ± 0.036
298.15 K, m1 = 0.05	999.62 ± 0.33	0.9108 ± 0.037
298.15 K, m1 = 0.075	1000.89 ± 0.33	0.9207 ± 0.037
298.15 K, m1 = 0.1	1002.14 ± 0.33	0.93 ± 0.038
298.15 K, m1 = 0.125	1003.4 ± 0.33	0.9393 ± 0.038
298.15 K, m1 = 0.15	1004.64 ± 0.33	0.9486 ± 0.038
298.15 K, m1 = 0.175	1005.88 ± 0.33	0.9579 ± 0.039
298.15 K, m1 = 0.2	1007.11 ± 0.33	0.9668 ± 0.039
303.15 K, m1 = 0.025	996.96 ± 0.34	0.8062 ± 0.033
303.15 K, m1 = 0.05	998.24 ± 0.34	0.8145 ± 0.033
303.15 K, m1 = 0.075	999.51 ± 0.34	0.8225 ± 0.033
303.15 K, m1 = 0.1	1000.78 ± 0.34	0.8304 ± 0.034
303.15 K, m1 = 0.125	1002.03 ± 0.34	0.838 ± 0.034
303.15 K, m1 = 0.15	1003.28 ± 0.34	0.8457 ± 0.034
303.15 K, m1 = 0.175	1004.53 ± 0.34	0.8533 ± 0.034
303.15 K, m1 = 0.2	1005.76 ± 0.34	0.8609 ± 0.035
308.15 K, m1 = 0.025	995.36 ± 0.35	0.7267 ± 0.029
308.15 K, m1 = 0.05	996.65 ± 0.35	0.7336 ± 0.03
308.15 K, m1 = 0.075	997.93 ± 0.36	0.7403 ± 0.03
308.15 K, m1 = 0.1	999.2 ± 0.36	0.7471 ± 0.03
308.15 K, m1 = 0.125	1000.46 ± 0.36	0.7535 ± 0.03
308.15 K, m1 = 0.15	1001.72 ± 0.36	0.7601 ± 0.031
308.15 K, m1 = 0.175	1002.97 ± 0.36	0.7664 ± 0.031
308.15 K, m1 = 0.2	1004.22 ± 0.36	0.7726 ± 0.031
313.15 K, m1 = 0.025	993.55 ± 0.37	0.6593 ± 0.027
313.15 K, m1 = 0.05	994.85 ± 0.37	0.6652 ± 0.027
313.15 K, m1 = 0.075	996.14 ± 0.37	0.6708 ± 0.027
313.15 K, m1 = 0.1	997.42 ± 0.37	0.6764 ± 0.027
313.15 K, m1 = 0.125	998.69 ± 0.37	0.6818 ± 0.028
313.15 K, m1 = 0.15	999.96 ± 0.37	0.6873 ± 0.028
313.15 K, m1 = 0.175	1001.22 ± 0.37	0.6926 ± 0.028
313.15 K, m1 = 0.2	1002.47 ± 0.37	0.6976 ± 0.028
318.15 K, m1 = 0.025	991.55 ± 0.38	0.6031 ± 0.024
318.15 K, m1 = 0.05	992.86 ± 0.38	0.608 ± 0.025
318.15 K, m1 = 0.075	994.16 ± 0.38	0.6128 ± 0.025
318.15 K, m1 = 0.1	995.45 ± 0.38	0.6174 ± 0.025
318.15 K, m1 = 0.125	996.74 ± 0.39	0.622 ± 0.025
318.15 K, m1 = 0.15	998.01 ± 0.39	0.6266 ± 0.025
318.15 K, m1 = 0.175	999.28 ± 0.39	0.6311 ± 0.025
318.15 K, m1 = 0.2	1000.55 ± 0.39	0.6355 ± 0.026
